Laboratory results taken from PubChem BioAssay (NCI).
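Values below derive from 48-hour exposures of cells grown in 96-well plates, with endpoints linearly interpolated between the two concentrations bracketing the appropriate inhibition level. TGI denotes the concentration required for complete inhibition of growth.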

Assays:
Test in all cases: inhibition of tumour cell growth, NCI panel, 48 h
786-0 renal = test system: 786-0 renal
A498 renal = test system: A498 renal
A549 NSCLC = test system: A549 NSCLC
ACHN renal = test system: ACHN renal
BT-549 breast = test system: BT-549 breast
CAKI-1 renal = test system: CAKI-1 renal
COLO 205 colon = test system: COLO 205 colon
DU-145 prostate = test system: DU-145 prostate
EKVX NSCLC = test system: EKVX NSCLC
HCC-2998 colon = test system: HCC-2998 colon
HCT-116 colon = test system: HCT-116 colon
HCT-15 colon = test system: HCT-15 colon
HL-60(TB) leukemia = test system: HL-60(TB) leukemia
HOP-62 NSCLC = test system: HOP-62 NSCLC
HOP-92 NSCLC = test system: HOP-92 NSCLC
HS 578T breast = test system: HS 578T breast
HT29 colon = test system: HT29 colon
IGROV1 ovarian = test system: IGROV1 ovarian
KM12 colon = test system: KM12 colon
LOX IMVI melanoma = test system: LOX IMVI melanoma
M14 melanoma = test system: M14 melanoma
MALME-3M melanoma = test system: MALME-3M melanoma
MCF7 breast = test system: MCF7 breast
MDA-MB-231 breast = test system: MDA-MB-231 breast
MDA-MB-435 = test system: MDA-MB-435
MDA-N = test system: MDA-N
MOLT-4 leukemia = test system: MOLT-4 leukemia
NCI-H226 lung = test system: NCI-H226 lung
NCI-H460 lung = test system: NCI-H460 lung
NCI-H522 lung = test system: NCI-H522 lung
NCI/ADR-RES ovarian = test system: NCI/ADR-RES ovarian
OVCAR-3 ovarian = test system: OVCAR-3 ovarian
OVCAR-4 ovarian = test system: OVCAR-4 ovarian
OVCAR-5 ovarian = test system: OVCAR-5 ovarian
OVCAR-8 ovarian = test system: OVCAR-8 ovarian
PC-3 prostate = test system: PC-3 prostate
RPMI-8226 leukemia = test system: RPMI-8226 leukemia
RXF 393 renal = test system: RXF 393 renal
SF-268 CNS = test system: SF-268 CNS
SF-539 CNS = test system: SF-539 CNS
SK-MEL-2 melanoma = test system: SK-MEL-2 melanoma
SK-MEL-28 melanoma = test system: SK-MEL-28 melanoma
SK-MEL-5 melanoma = test system: SK-MEL-5 melanoma
SK-OV-3 ovarian = test system: SK-OV-3 ovarian
SN12C renal = test system: SN12C renal
SNB-19 CNS = test system: SNB-19 CNS
SNB-75 CNS = test system: SNB-75 CNS
SR leukemia = test system: SR leukemia
SW-620 colon = test system: SW-620 colon
T-47D breast = test system: T-47D breast
TK-10 renal = test system: TK-10 renal
U251 CNS = test system: U251 CNS
UACC-257 melanoma = test system: UACC-257 melanoma
UACC-62 melanoma = test system: UACC-62 melanoma
UO-31 renal = test system: UO-31 renal
CCRF-CEM leukemia = test system: CCRF-CEM leukemia
K-562 leukemia = test system: K-562 leukemia
NCI-H23 lung = test system: NCI-H23 lung
SF-295 CNS = test system: SF-295 CNS

Cc1cc(S(=O)(=O)Nc2n[nH]c(-c3ccc(Cl)cn3)n2)c(S)cc1Cl
TGI (786-0 renal): > 100 µM | TGI (A498 renal): > 100 µM | TGI (A549 NSCLC): > 100 µM | TGI (ACHN renal): > 100 µM | TGI (BT-549 breast): > 100 µM | TGI (CAKI-1 renal): > 100 µM | TGI (COLO 205 colon): > 100 µM | TGI (DU-145 prostate): > 100 µM | TGI (EKVX NSCLC): > 100 µM | TGI (HCC-2998 colon): > 100 µM | TGI (HCT-116 colon): > 100 µM | TGI (HCT-15 colon): > 100 µM | TGI (HL-60(TB) leukemia): > 100 µM | TGI (HOP-62 NSCLC): > 100 µM | TGI (HOP-92 NSCLC): > 100 µM | TGI (HS 578T breast): 87.2 µM | TGI (HT29 colon): > 100 µM | TGI (IGROV1 ovarian): > 100 µM | TGI (KM12 colon): > 100 µM | TGI (LOX IMVI melanoma): > 100 µM | TGI (M14 melanoma): > 100 µM | TGI (MALME-3M melanoma): > 100 µM | TGI (MCF7 breast): > 100 µM | TGI (MDA-MB-231 breast): > 100 µM | TGI (MDA-MB-435): > 100 µM | TGI (MDA-N): > 100 µM | TGI (MOLT-4 leukemia): > 100 µM | TGI (NCI-H226 lung): > 100 µM | TGI (NCI-H460 lung): > 100 µM | TGI (NCI-H522 lung): > 100 µM | TGI (NCI/ADR-RES ovarian): > 100 µM | TGI (OVCAR-3 ovarian): > 100 µM | TGI (OVCAR-4 ovarian): > 100 µM | TGI (OVCAR-5 ovarian): > 100 µM | TGI (OVCAR-8 ovarian): > 100 µM | TGI (PC-3 prostate): > 100 µM | TGI (RPMI-8226 leukemia): > 100 µM | TGI (RXF 393 renal): > 100 µM | TGI (SF-268 CNS): > 100 µM | TGI (SF-539 CNS): > 100 µM | TGI (SK-MEL-2 melanoma): > 100 µM | TGI (SK-MEL-28 melanoma): > 100 µM | TGI (SK-MEL-5 melanoma): > 100 µM | TGI (SK-OV-3 ovarian): > 100 µM | TGI (SN12C renal): > 100 µM | TGI (SNB-19 CNS): 92.5 µM | TGI (SNB-75 CNS): > 100 µM | TGI (SR leukemia): > 100 µM | TGI (SW-620 colon): > 100 µM | TGI (T-47D breast): > 100 µM | TGI (TK-10 renal): > 100 µM | TGI (U251 CNS): > 100 µM | TGI (UACC-257 melanoma): > 100 µM | TGI (UACC-62 melanoma): > 100 µM | TGI (UO-31 renal): 99.4 µM

CN(C)c1ccc(/C=C2\C[C@H]3[C@@H]4CCc5cc(OCCN6CCCC6)ccc5[C@H]4CC[C@]3(C)[C@H]2O)cc1
TGI (786-0 renal): 5.05 µM | TGI (A498 renal): 34.9 µM | TGI (A549 NSCLC): 20.3 µM | TGI (ACHN renal): 42.9 µM | TGI (BT-549 breast): 31.1 µM | TGI (CAKI-1 renal): 30 µM | TGI (CCRF-CEM leukemia): 5.99 µM | TGI (COLO 205 colon): 27.9 µM | TGI (DU-145 prostate): 26.2 µM | TGI (EKVX NSCLC): 41.8 µM | TGI (HCC-2998 colon): 14.5 µM | TGI (HCT-116 colon): 8.78 µM | TGI (HCT-15 colon): > 100 µM | TGI (HL-60(TB) leukemia): 43.3 µM | TGI (HOP-62 NSCLC): 35.5 µM | TGI (HOP-92 NSCLC): 24.7 µM | TGI (HS 578T breast): > 61.9 µM | TGI (HT29 colon): > 25.7 µM | TGI (IGROV1 ovarian): 39.7 µM | TGI (K-562 leukemia): > 37.5 µM | TGI (KM12 colon): > 60.2 µM | TGI (LOX IMVI melanoma): > 100 µM | TGI (MALME-3M melanoma): > 30.2 µM | TGI (MCF7 breast): 30.1 µM | TGI (MDA-MB-231 breast): 16.4 µM | TGI (MDA-MB-435): 39 µM | TGI (MDA-N): 46.3 µM | TGI (MOLT-4 leukemia): 46 µM | TGI (NCI-H226 lung): 37.4 µM | TGI (NCI-H23 lung): 31.4 µM | TGI (NCI-H460 lung): 30.2 µM | TGI (NCI-H522 lung): 7.69 µM | TGI (NCI/ADR-RES ovarian): 53.6 µM | TGI (OVCAR-3 ovarian): 30.9 µM | TGI (OVCAR-4 ovarian): > 58.8 µM | TGI (OVCAR-5 ovarian): 31.1 µM | TGI (OVCAR-8 ovarian): 18.9 µM | TGI (PC-3 prostate): 48.9 µM | TGI (RPMI-8226 leukemia): > 63.8 µM | TGI (RXF 393 renal): 33.9 µM | TGI (SF-268 CNS): 61.7 µM | TGI (SF-295 CNS): 30.4 µM | TGI (SF-539 CNS): 22 µM | TGI (SK-MEL-2 melanoma): 34.8 µM | TGI (SK-MEL-28 melanoma): 11.9 µM | TGI (SK-MEL-5 melanoma): 22.9 µM | TGI (SK-OV-3 ovarian): 31.7 µM | TGI (SN12C renal): 47.4 µM | TGI (SNB-19 CNS): 46.1 µM | TGI (SNB-75 CNS): 28 µM | TGI (SR leukemia): 10.2 µM | TGI (SW-620 colon): 18.6 µM | TGI (T-47D breast): 47.5 µM | TGI (TK-10 renal): 11.6 µM | TGI (U251 CNS): 17.6 µM | TGI (UACC-257 melanoma): 19.5 µM | TGI (UACC-62 melanoma): 39.5 µM | TGI (UO-31 renal): 16.8 µM

Cc1ncc(-c2nnnn2-c2ccccc2)c(C(=O)O)n1
TGI (786-0 renal): > 100 µM | TGI (A498 renal): > 100 µM | TGI (A549 NSCLC): > 100 µM | TGI (ACHN renal): > 100 µM | TGI (BT-549 breast): > 100 µM | TGI (CAKI-1 renal): > 100 µM | TGI (CCRF-CEM leukemia): > 100 µM | TGI (COLO 205 colon): > 100 µM | TGI (DU-145 prostate): > 100 µM | TGI (EKVX NSCLC): > 100 µM | TGI (HCC-2998 colon): > 100 µM | TGI (HCT-116 colon): > 100 µM | TGI (HCT-15 colon): > 100 µM | TGI (HL-60(TB) leukemia): > 100 µM | TGI (HOP-62 NSCLC): > 100 µM | TGI (HOP-92 NSCLC): > 100 µM | TGI (HS 578T breast): > 100 µM | TGI (HT29 colon): > 100 µM | TGI (IGROV1 ovarian): > 100 µM | TGI (K-562 leukemia): > 100 µM | TGI (KM12 colon): > 100 µM | TGI (LOX IMVI melanoma): > 100 µM | TGI (M14 melanoma): > 100 µM | TGI (MALME-3M melanoma): > 100 µM | TGI (MCF7 breast): > 100 µM | TGI (MDA-MB-231 breast): > 100 µM | TGI (MDA-MB-435): > 100 µM | TGI (MDA-N): > 100 µM | TGI (MOLT-4 leukemia): > 100 µM | TGI (NCI-H226 lung): > 100 µM | TGI (NCI-H23 lung): > 100 µM | TGI (NCI-H460 lung): > 100 µM | TGI (NCI-H522 lung): > 100 µM | TGI (NCI/ADR-RES ovarian): > 100 µM | TGI (OVCAR-3 ovarian): > 100 µM | TGI (OVCAR-5 ovarian): > 100 µM | TGI (OVCAR-8 ovarian): > 100 µM | TGI (PC-3 prostate): > 100 µM | TGI (RPMI-8226 leukemia): > 100 µM | TGI (RXF 393 renal): > 100 µM | TGI (SF-268 CNS): > 100 µM | TGI (SF-295 CNS): > 100 µM | TGI (SF-539 CNS): > 100 µM | TGI (SK-MEL-2 melanoma): > 100 µM | TGI (SK-MEL-28 melanoma): > 100 µM | TGI (SK-MEL-5 melanoma): > 100 µM | TGI (SK-OV-3 ovarian): > 100 µM | TGI (SN12C renal): > 100 µM | TGI (SNB-19 CNS): > 100 µM | TGI (SNB-75 CNS): > 100 µM | TGI (SR leukemia): > 100 µM | TGI (SW-620 colon): > 100 µM | TGI (T-47D breast): > 100 µM | TGI (TK-10 renal): > 100 µM | TGI (U251 CNS): > 100 µM | TGI (UACC-257 melanoma): > 100 µM | TGI (UACC-62 melanoma): > 100 µM | TGI (UO-31 renal): > 100 µM
